In article PMC5297703, “R-Flurbiprofen Traps Prostaglandins within Cells by Inhibition of Multidrug Resistance-Associated Protein-4” (International Journal of Molecular Sciences, 2016):

Biological target: T1, cPLA2α (Homo sapiens, UniProt P47712)
T1 construct: gene PLA2G4A; recombinant, isolated from Sf9 insect cells
T1 sequence (P47712 1-749): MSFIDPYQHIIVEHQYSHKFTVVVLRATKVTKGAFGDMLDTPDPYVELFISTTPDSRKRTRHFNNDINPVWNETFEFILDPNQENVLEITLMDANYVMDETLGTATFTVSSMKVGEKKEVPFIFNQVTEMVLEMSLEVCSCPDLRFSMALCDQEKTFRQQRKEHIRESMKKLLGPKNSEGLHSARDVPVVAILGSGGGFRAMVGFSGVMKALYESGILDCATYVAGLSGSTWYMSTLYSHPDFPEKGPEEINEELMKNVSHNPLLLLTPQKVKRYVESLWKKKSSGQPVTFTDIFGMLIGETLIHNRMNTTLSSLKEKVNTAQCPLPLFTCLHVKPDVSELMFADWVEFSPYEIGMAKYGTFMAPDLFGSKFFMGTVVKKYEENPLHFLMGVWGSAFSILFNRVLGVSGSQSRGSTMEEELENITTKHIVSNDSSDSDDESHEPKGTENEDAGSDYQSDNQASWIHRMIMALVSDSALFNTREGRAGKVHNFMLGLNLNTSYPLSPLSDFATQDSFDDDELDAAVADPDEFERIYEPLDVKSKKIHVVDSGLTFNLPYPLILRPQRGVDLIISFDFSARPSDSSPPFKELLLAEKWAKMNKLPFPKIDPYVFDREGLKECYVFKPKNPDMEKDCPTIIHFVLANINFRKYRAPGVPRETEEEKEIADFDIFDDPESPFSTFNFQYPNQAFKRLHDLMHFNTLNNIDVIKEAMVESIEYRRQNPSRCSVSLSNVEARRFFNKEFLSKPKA
Assay: cPLA2α activity assay with PAPC/POG vesicles, arachidonic acid by LC-MS/MS
Type: biochemical

With `C[C@@H](C(=O)O)c1ccc(-c2ccccc2)c(F)c1` [R-flurbiprofen] the IC50 was 202 µM.
